Results published in US20050267128A1, “Compounds, compositions and methods of modulating the mitochondrial apoptosis-induced channel (MAC)” (priority 2004, published 2005).
Entries after “also recorded” stand apart in the source; their conditions may differ.

Assays:
[1] = tested on: mitochondrial apoptosis-induced channel (MAC); experiment: Patch clamp of MAC in proteoliposomes containing mitochondrial outer membranes of apoptotic FL5.12 cells; assay type: biochemical, mouse; conditions: for voltage dependence of MAC blockade: current voltage curves between +40 mV and −40 mV; for Hill coefficient of MAC blockade / IC50 / IC50 for MAC, stated in words: patch clamp, proteoliposomes; for IC50: 150 mM KCl 5 mM HEPES pH 7.4, read-out: IC50 for blockade of MAC (inhibition of conductance); for reversibility of MAC blockade on removal by perfusion of the bath: wash out with 150 mM KCl 5 mM HEPES
Procedure: Hematopoietic FL5.12 cells are a mouse leukemia cell line that enters apoptosis after withdrawal of the growth factor interleukin-3 (IL-3) (Gross, A., Jockel, J., Wei, M. C. and Korsmeyer, S. J. (1998). Parental FL5.12 cells were cultured as previously described (Gross, A., Jockel, J., Wei, M. C. and Korsmeyer, S. J. (1998) EMBO J. 17, 3878-85) in Iscove's Modified Eagle Media (IMEM), 10% Fetal Bovine Serum, 10% WEHI-3B supplement (filtered supernatant of WEHI-3B cells secreting IL-3). Cultures were kept below 1.5 million cells/ml. Cells were washed three times in media without IL-3 (WEHI supplement) to induce apoptosis twelve hours prior to the isolation of mitochondria (Zamzami, N., Susin, S. A., Marchetti, P., Hirsch, T., Gomez-Monterrey, I., Castedo, M. and Kroemer, G. (1996).
Mitochondria were isolated from 2-15 g of FL5.12 cells as previously described for outer membrane preparations (Guo, L., Pietkiewicz, D., Pavlov, E. V., Kasianowicz, J. J., Korsmeyer, S. J., Antonsson, B. and Kinnally, K. W. (2004) American Journal of Physiology, Cell Biology. 286, C1109-17; Pavlov, E. V., Priault, M., Pietkiewicz, D., Cheng, E.H.-Y., Antonsson, B., Manon, S., Korsmeyer, S. J., Mannella, C. A. and Kinnally, K. W. (2001) J. Cell Biology 155, 725-732). Outer membranes were stripped from the inner membranes by French pressing isolated mitochondria using modifications of the method of Decker and Greenawalt (Decker, G. L. and Greenawalt, J. W. (1977) J. Ultrastr. Res. 59, 44-56) as described in (Pavlov, E. V., Priault, M., Pietkiewicz, D., Cheng, E.H.-Y., Antonsson, B., Manon, S., Korsmeyer, S. J., Mannella, C. A. and Kinnally, K. W. (2001) J. Cell Biology 155, 725-732). French pressing was done at 2000 PSI in 460 mM Mannitol 140 mM Sucrose 2 mM EDTA 10 mM HEPES pH 7.4. The pressed suspension was diluted 1:1 with 230 mM Mannitol 70 mM sucrose 1 mM EDTA 5 mM HEPES pH 7.4 and centrifuged at 10,000 rpm (12,000 g) for 10 minutes. Outer membranes were separated from inner membranes as described by Mannella (Mannella, C. A. (1982) J. Cell Biol. 94, 680-687).

[2] = tested on: MAC from apoptotic HeLa cells; experiment: Blockade of MAC in partially purified fractions from apoptotic HeLa cells treated with staurosporine; assay type: biochemical; conditions: unpublished results
[3] = tested on: permeability transition pore (PTP); conditions: mitochondria; cited from earlier work
neurons = conditions: cited from earlier work

Row | IC50 [1] | SMILES | current flow through MAC upon perfusion of the bath ([1]; 50 μM, +20 mV) | voltage dependence of MAC blockade [1] | Hill coefficient of MAC blockade [1] | reversibility of MAC blockade on removal by perfusion of the bath [1] | blockade of MAC compared with FL5.12 preparation [2] | concentration that blocks the PTP [3] | concentration that blocks mitochondrial depolarization induced by glutamate (neurons) | effect on MAC activity ([1]; 300 μM) | effect on MAC activity ([1]; no concentration stated (FIG. 3B)) | IC50 for MAC, stated in words [1]
1 | 39 µM | CCCCOc1cc(C(=O)NCCN(CC)CC)c2ccccc2n1 [dibucaine] | rapidly reduced | not voltage dependent | 1.3±0.1 | reversible | similar | 50 to 100 µM | 50 to 100 µM |  |  | 
2 |  | CCN(CC)CC(=O)Nc1c(C)cccc1C [lidocaine] |  |  |  |  |  |  |  | little effect | limited effects; also recorded: no effect | mM to M
3 |  | CC(C)NCC(O)COc1cccc2ccccc12 (stereo not drawn) [propranolol] |  | not voltage dependent | 2.1±0.2 | not reversible |  |  |  |  |  | 
4 | 0.9 µM | CN1CCN(CCCN2c3ccccc3Sc3ccc(C(F)(F)F)cc32)CC1 [trifluoperazine] |  | not voltage dependent | 1.4±0.2 | not reversible |  | 10 to 20 µM | 10 to 20 µM |  |  | high nanomolar range
